Results on 1 compound are retold here after patent US8865750B2, “Small molecule inhibitors of RGS proteins” (The Regents of The University of Michigan, priority 2011, dated 2014).

A value given as a limit tells only on which side of the number the result lay.

The subject of one assay is αAR. As to the kind of experiment: NIMH Psychoactive Drug Screening Program receptor panel. The method, then: (§1) Furthermore, the compound was tested against a panel of receptors via collaboration with the NIMH Psycoactive Drug Screening Program.
In assay [1] the test system is muscarinic class of GPCRs. The description is as above. How it is done:
as §1

Another assay has as its system HEK293 cells. The assay is described as follows: Calcium mobilization induced by compound alone.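 For Calcium transient (% 50014): percent of response to 10 µM reference CCG-50014.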 It counts as cell-based. The gist of the method: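 HEK-293 Flp-In TREx cells stably expressing muscarinic M3 receptor, with human RGS4 induced by 1 μg/mL doxycycline for 24-48 h, loaded with Fluo-4 for 30 min at 37° C. Compound added without carbachol; fluorescence followed for 120 s, quantified as area under curve or peak intensity.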

In the next assay the target is PLCβ3 (Homo sapiens (Human), UniProt Q01970). As to the kind of experiment: PLCβ inhibition assay. The class given is biochemical. The conditions noted are these: Table 7. The method, then:
PLCβ inhibition assay: Lipid vesicles containing 200 μM phosphatidylethanolamine, 50 μM PIP2 (Avanti Polar Lipids), and ˜4000-8000 cpm [^3H]-labeled PIP2 (Perkin-Elmer) per assay were generated by combining the lipids in a borosilicate glass tube and drying the mixture under a stream of nitrogen. Dried lipids were resuspended in 50 mM HEPES pH 7, 80 mM KCl, 2 mM EGTA and 1 mM DTT using a bath sonicator. Activity assays were performed in a final volume of 60 μL containing 3 ng mL^−1 PLCβ3, 50 mM HEPES pH 7, 80 mM KCl, 15 mM NaCl, 0.83 mM MgCl2, 3 mM DTT, 1 mg mL^−1 BSA, 2.5 mM EGTA, 0.2 mM EDTA, 2% DMSO, and enough CaCl2 to give a free concentration of ˜200 nM. […] The reactions were initiated by the addition of liposomes and transferred to 30° C. for 5 min. Reactions were terminated by the addition of 100 μL 10 mg mL^−1 BSA and 200 μL 10% (w/v) ice-cold trichloroacetic acid. The reactions were centrifuged at 8000 g for 5 min to pellet proteins and liposomes, and 200 μL of the resulting supernatant containing free [^3H]-IP3 was measured by scintillation counting (Ghosh et al., (2004) Methods Mol Biol 237, 67-75) GSK-3β inhibition assay: […]

Another assay has as its target RGS19 (Homo sapiens (Human), UniProt P49795). The assay is described as follows: FCPIA: Gαo binding to RGS19. The conditions noted are these: Table 7. The method, then: FCPIA Dose Response and Reversibility Experiments:
FCPIA was performed as previously described using chemically biotinylated RGS proteins and AlexaFluor-532 labeled Gα0. (Roman et al., J Biomol Screen, 2009; Blazer, L. L., et al., Mol Pharmacol).
RGS/Gα binding studies: The binding of biotinylated RGS proteins to fluorescently labeled Gαo was measured by Flow Cytometry Protein Interaction Assay (FCPIA) method previously described (Roman et al., (2009) J Biomol Screen.; Blazer et al., (2010) Curr Protoc Cytom Chapter 13, Unit 13 11 11-15; Roman et al., (2007) Mol Pharmacol 71, 169-175) as were the measures of compound reversibility.

Another assay deals with Gα0 (Homo sapiens (Human), UniProt P09471). As to the kind of experiment: Intrinsic GTP hydrolysis by Gαo (single turnover). The class given is biochemical. How it is done:
Single Turnover GTPase Measurements:
Compounds were tested for the ability to inhibit the RGS4 and RGS8-stimulated increase in GTP hydrolysis by Gα0 as described previously (Roman, D. L., et al., Mol Pharmacol, 2007. 71(1): p. 169-75; Roof, R. A., et al., Chem Biol Drug Des, 2006. 67(4): p. 266-74).
Single-turnover GAP assay: Experiments were performed as previously described using purified his6-tagged Gαo (Blazer et al., Biochemistry 50, 3181-3192; Roof et al., (2008) Chem Biol Drug Des 72, 111-119).

For a further assay, the target named is RGS4/Gα0 interaction (Homo sapiens (Human), UniProt P49798). As to the kind of experiment: RGS4-GFP membrane translocation (confocal microscopy, HEK-293T). The class given is cell-based. The conditions noted are these: 100 μM where stated. The method, then:
Cellular Localization Studies:
HEK-293T cells grown to 80-90% confluency in 6-well dishes in DMEM supplemented with 10% fetal bovine serum and Penicillin (100 units/ml)-Streptomycin (100 μg/ml) under 5% CO2 at 37° C. RGS and Gα0 expression was induced by transient co-transfection with either 250 ng of full-length human RGS4 with an N-terminal GFP tag (RGS4pEGFP-C1) or a C-terminal RGS4-GFP (RGS4pDEST47) and 250 ng of pcDNA3.1 or pcDNA with wildtype human Gα0. Cells were split onto poly-D-lysine coated glass coverslips and cultured for 24-48 hours after transfection before live cell imaging. Images were acquired on an Olympus Fluoview 500 confocal microscope with a 60×1.40 numerical aperture (N.A) oil objective. Images were obtained by taking a series of stacks every 0.5 μm through the cell and combining the images into a composite stack. The light source for the fluorescent studies was a 488 nm laser with a 505-525 nm bandpass filter. Images were quantified using NIH ImageJ software version 1.43r.
Confocal Microscopy: HEK-293T cells grown to 80-90% confluency in 6-well dishes in DMEM supplemented with 10% fetal bovine serum and Penicillin (100 units/ml)-Streptomycin (100 μg/ml) under 5% CO2 at 37° C. […] Images were quantified using NIH ImageJ software version 1.43r.

Sequence of PLCβ3 (Q01970 whole entry, species assumed): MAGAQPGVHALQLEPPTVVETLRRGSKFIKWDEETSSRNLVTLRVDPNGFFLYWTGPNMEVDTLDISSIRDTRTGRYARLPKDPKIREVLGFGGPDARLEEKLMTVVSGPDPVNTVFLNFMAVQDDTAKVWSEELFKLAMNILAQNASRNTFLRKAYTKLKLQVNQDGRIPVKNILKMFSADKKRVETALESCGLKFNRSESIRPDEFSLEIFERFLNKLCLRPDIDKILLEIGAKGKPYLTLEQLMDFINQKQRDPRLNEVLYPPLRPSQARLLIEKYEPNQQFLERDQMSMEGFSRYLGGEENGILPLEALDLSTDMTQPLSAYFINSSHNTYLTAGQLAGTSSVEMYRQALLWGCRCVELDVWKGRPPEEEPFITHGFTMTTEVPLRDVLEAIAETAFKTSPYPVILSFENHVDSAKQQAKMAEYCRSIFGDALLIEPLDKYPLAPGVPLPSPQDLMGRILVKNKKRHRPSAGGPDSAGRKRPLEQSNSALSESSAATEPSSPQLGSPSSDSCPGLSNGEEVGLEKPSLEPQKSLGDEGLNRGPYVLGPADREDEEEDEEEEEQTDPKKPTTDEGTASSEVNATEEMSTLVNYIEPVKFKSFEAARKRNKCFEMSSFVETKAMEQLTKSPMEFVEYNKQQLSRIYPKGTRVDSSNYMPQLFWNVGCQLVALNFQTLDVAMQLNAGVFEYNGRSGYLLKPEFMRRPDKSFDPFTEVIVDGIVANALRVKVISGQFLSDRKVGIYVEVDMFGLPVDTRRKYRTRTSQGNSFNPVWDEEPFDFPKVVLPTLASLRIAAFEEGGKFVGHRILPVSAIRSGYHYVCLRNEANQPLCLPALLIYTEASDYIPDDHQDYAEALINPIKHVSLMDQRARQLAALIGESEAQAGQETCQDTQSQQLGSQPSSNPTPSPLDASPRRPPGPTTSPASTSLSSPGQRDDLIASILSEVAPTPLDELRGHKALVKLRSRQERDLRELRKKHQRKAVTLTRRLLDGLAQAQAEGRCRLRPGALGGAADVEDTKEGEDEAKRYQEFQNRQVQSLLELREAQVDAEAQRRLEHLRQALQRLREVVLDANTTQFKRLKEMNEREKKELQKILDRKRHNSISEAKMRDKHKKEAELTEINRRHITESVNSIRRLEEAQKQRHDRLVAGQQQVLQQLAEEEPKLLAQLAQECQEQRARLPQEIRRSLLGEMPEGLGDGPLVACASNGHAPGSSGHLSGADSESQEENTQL
Sequence of RGS4/Gα0 interaction (P49798 whole entry): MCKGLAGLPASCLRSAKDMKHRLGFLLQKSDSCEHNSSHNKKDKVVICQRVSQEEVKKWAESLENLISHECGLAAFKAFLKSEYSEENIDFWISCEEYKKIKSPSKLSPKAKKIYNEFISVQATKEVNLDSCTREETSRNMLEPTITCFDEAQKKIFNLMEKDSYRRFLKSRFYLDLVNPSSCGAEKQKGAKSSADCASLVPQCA
Sequence of RGS19 (P49795 whole entry, species assumed): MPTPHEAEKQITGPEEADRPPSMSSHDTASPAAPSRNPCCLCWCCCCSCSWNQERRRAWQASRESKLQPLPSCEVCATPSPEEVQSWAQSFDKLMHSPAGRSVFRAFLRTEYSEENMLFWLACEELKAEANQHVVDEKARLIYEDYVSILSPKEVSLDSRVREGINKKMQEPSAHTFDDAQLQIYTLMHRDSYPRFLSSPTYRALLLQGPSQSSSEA
Sequence of Gα0 (P09471 whole entry): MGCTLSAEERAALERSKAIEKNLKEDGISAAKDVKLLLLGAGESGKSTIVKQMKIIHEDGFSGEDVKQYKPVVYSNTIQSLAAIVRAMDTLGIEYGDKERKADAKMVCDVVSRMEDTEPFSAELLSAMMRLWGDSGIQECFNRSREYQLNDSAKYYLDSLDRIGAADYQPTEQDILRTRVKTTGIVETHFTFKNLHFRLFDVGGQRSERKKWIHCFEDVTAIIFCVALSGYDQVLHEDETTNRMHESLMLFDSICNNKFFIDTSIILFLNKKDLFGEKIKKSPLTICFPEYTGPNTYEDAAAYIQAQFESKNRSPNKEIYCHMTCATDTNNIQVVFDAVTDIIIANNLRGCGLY

By IC50 is commonly meant the concentration that inhibits the measured activity by half. Take `CCCCn1c(=O)sn(CC)c1=O` [CCG-203769, 2-ethyl-4-butyl-1,2,4-thiadiazolidine-3,5-dione]: the “effect on αAR” value in the assay on αAR is “able to inhibit”. In assay [1], the “effect upon muscarinic class of GPCRs” value is “little to no observable effect”. For the same compound, in the assay with HEK293 cells (10 μM, HEK293 cells), the “induction of calcium transient by compound alone” value is on record as “no ability to induce calcium mobilization”. For the same compound, the Emax at 10 µM with HEK293 cells (Homo sapiens, HEK293, read-out: Calcium transient (% 50014)) came out at 2.7%. Also, the values for the IC50 at PLCβ3 and on RGS19 were above 100 µM and 0.14 µM, respectively. Also, the “basal GTPase activity of the G protein” value on Gα0 is given as “without inhibiting the basal GTPase activity”. For the same compound, the “reversal of Gα0-induced RGS4 membrane translocation” value at RGS4/Gα0 interaction was “reverses the membrane translocation”.
